Patent publication US5389621A, “Method of enhancing the anticoagulant effects of aspirin using salicylamide” (University of Medicine and Dentistry of New Jersey, priority 1994, dated 1995)

Experiments:
[1] = test system: cyclooxygenase; details: in vitro; cited from earlier work
[2] = test system: lyso-PAF:acetyl-CoA acetyltransferase; details: cited from earlier work
[3] = cited from earlier work
[4] = test system: platelet cyclooxygenase; assay: Thromboxane B2 synthesis by arachidonic acid-stimulated platelet-rich plasma in vitro; format: cell-based, male Sprague-Dawley rats; details: ASA/SA 1:1 w/w, TX B2
Source text: Was done manually by the method of Brecher and Conkite (1953) using phase contrast microscopy (Balplan) with a 40×annulus, 40×phase objective, and 10×ocular (total of 400×), and a special platelet counting chamber (American Optical Corp., Buffalo, N.Y.) and dilution with 1% ammonium oxalate. The platelet-rich plasma (PRP) was adjusted by dilution with platelet-poor plasma (PPP) to give a final count of 1×10^9 platelets/ml.
Arachidonic acid (as the sodium salt, >99.0% pure) was obtained from Sigma Chemical Co. and a stock solution of 34.5 mM was prepared by dissolving in isotonic saline. 20 μl of the stock solution were added to 440 μl of PRP (400 μl of PRP and 20 or 40 μl of treatment solution ±20 μl of saline) to make a 23 fold dilution. The final concentration of AA in PRP was 1.5 mM.
EDTA solution was prepared by adding 2 gm disodium EDTA and 0.8 gm NaCl and were adjusted to pH 7.4 with NaOH and made up to a final volume of 100 ml in distilled water. ASA solution was prepared by dissolving 30 mg in 10 ml of isotonic saline to make a solution of 3 mg/ml.
950 μl of EDTA solution were added to 50 μl of ASA solution and the mixture was vortexed. 40 μl of the mixture were pipetted in the experiment test tubes to stop further prostaglandin production.
Platelet-rich plasma (PRP) was prepared from male Sprague-Dawley rats (300-325 gm). The blood was collected by heart puncture and added to 3.8% citrate solution, final volume 9:1, blood:citrate. The blood was centrifuged at 120×g (750 rpm) for 15 minutes at 4° C. to obtain PRP. The rest of the blood was spun at 1800×g (3000 rpm) for 10 minutes to get the PPP which was used later for dilution of the PRP to achieve the final desired platelet concentration of 1×10^9 platelets/ml. 400 μl of PRP, containing 4×10^8 platelets, were pipetted in polypropylene tubes and the following treatment groups were studied:
1--Baseline (-ve control) tubes: to measure the baseline production of Thromboxane B2 (TX B2) by platelets during the time of the experiment, 60 μl of saline were added and left for 10 minutes in a shaking water bath at 37° C.
2--Control (+ve control) tubes: 20 μl of arachidonic acid (AA) solution were added to achieve a final concentration of 1.5 mM and the tubes were incubated […].
3--ASA and/or SAM treatment tubes: 20 μl of ASA (final conc. 130 μg/ml), 20 μl of SAM solution (final conc. 40 μg/ml), 20 μl of ASA/SAM(L) solution (final conc. 130/40 μg/ml) or 20 μl of ASA/SAM(H) solution (final conc. 130/120 μg/ml) were added to PRP together with 20 μl of saline for 10 minutes, then 20 μl of AA solution were added for additional 10 minutes.
4--ASA/SA treatment: 20 μl of ASA/SA solution (final conc. 130/130 μg/ml) and 20 μl of saline were added to the tubes for 10 minutes before AA was added for further 10 minutes.
5--ASA/SA/SAM treatment: 20 μl of ASA/SA solution (130/130 μg/ml as final conc.) and 20 μl of […] in low (L) or high (H) concentrations (40 or 120 μg/ml, final conc.) were added simultaneously to PRP followed 10 minutes later by AA.
6--SAM/SA treatment: 20 μl of SAM solution (final conc. 40 μg/ml) and 20 μl of SA solution (final conc. 130 μg/ml) were added followed 10 minutes later by AA for additional 10 minutes.
Also, the effect of SAM when administered first to the platelets followed 10 minutes later by ASA was studied to know whether the effect of SAM is time dependent or not.
During the treatment, all the tubes were incubated at 37° C. in a shaking water bath. Ten minutes after the addition of AA, or saline (for the control tubes), the experiment was ended by addition of 40 μl of EDTA/ASA solution. The tubes were immediately centrifuged at 1800×g for 15 minutes at 4° C. to precipitate the platelets and 100 μl of the supernatant were obtained for estimation of their content of TX B2 using a specific radioimmunoassay (Amersham International) (vide infra).
Radioimmunoassay Procedure for Measurement of Thromboxane B2 and 6-keto PG F1alpha […]

O=C(O)c1ccccc1O [SA, salicylic acid]
Effect on cyclooxygenase [1]: does not have the capacity to inhibit cyclooxygenase
Effect on lyso-PAF:acetyl-CoA acetyltransferase [2]: inhibitory effect
Pharmacokinetics linearity ([3]; humans and rats): non-linear and dose-dependent
Distribution and plasma albumin binding ([3]; rat, in vivo): concentration-dependent distribution and plasma albumin binding
Antagonism of ASA effect by SA [4]: ~ 70%
